Legend:
[1] = test system: Pseudomonas aeruginosa PA14 wild-type; assay: microbe, parasite or virus in culture; format: cell-based; conditions: for differences in planktonic cell susceptibility between the different strains: wild type vs gacS^− vs SCV, log2 difference or less; for MIC72 h: wild type, planktonic cells, OD650 after 72 h at 35° C., mean ± SD of four trials
Method: (§1) Antimicrobial susceptibility testing. Antibiotic, metal and biocide susceptibility tests were performed. Antimicrobials were arranged into arrays in microtitre plates that typically consisted of serial two-fold dilutions along the rows of wells (the challenge plates). The first and last wells of every row were used as sterility and growth controls, respectively. […] Biofilms were rinsed with PBS (to remove loosely adherent planktonic cells) and inserted into the challenge plates. After exposure, biofilms were rinsed once in PBS and inserted into microtitre plates containing […] of recovery medium in each well (LB broth, 5 mM GSH, 5 mM L-cys, 1% v/v tween-20). These biofilms were disrupted into the recovery medium using a sonicator, and the recovered cells were serially diluted and plated for viable cell counting. Spot plates from these experiments were incubated for a minimum of 36 h at 35° C. before enumeration. Minimum inhibitory concentration (MIC) values were determined by reading the optical density at 650 nm (OD650) of challenge plates after 72 h at 35° C. using a THERMOmax microplate reader with SOFTMAX PRO data analysis software (Molecular Devices, Sunnyvale, Calif.).
(§2) For susceptibility testing, growth-curve data were used to calibrate incubation times to produce biofilms of similar cell density. […] In this model system, planktonic cells shed from the surface of biofilms served as the inoculum for MIC determinations.

[2] = test system: Pseudomonas aeruginosa PA14 wild-type biofilms; format: cell-based; conditions: for MBEC99.9: wild type biofilms, 2 h exposure, 3 log10 reduction in viable cells
Text: (§3) Biofilm formation. Biofilms were aerobically cultivated using the MBEC high-throughput (HTP) or Physiology and Genetics (P&G) device (Innovotech, Edmonton, Canada) as described in the manufacturer's instructions and by Ceri et al. (1999). To summarize, the parts of this batch culture apparatus were used in two ways. The top half of the plastic MBEC™-HTP device is a lid with 96 polystyrene pegs that also fits over a standard 96-well microtitre plate. For Biofilm growth, the bottom half was either (1) a corrugated trough that guided 22 mL of inoculum across the pegs when the device was placed on a rocker at 3.5 rocks per min (HTP format), or (2) a microtitre plate with […] of inoculum in each well that was placed on a gyrorotary shaker at 150 r.p.m. (P&G format). For either assay format, the inoculum was prepared to c. 10^7CFU/mL1 of the desired strain and the inoculated device was incubated at 35° C. and 95% relative humidity for the required time. Unless otherwise noted, all experiments utilized the MBEC P&G assay. Pegs from the devices were collected at specific time points for scanning electron microscopy and scanning confocal laser microscopy. Biofilm cell densities were evaluated by breaking pegs from the lid of the MBEC device with sterile pliers, rinsing the peg in PBS, and subsequent viable-cell counting as described above. PBS containing the […] surfactant Tween-20 (1% v/v) was used to assist in recovery of bacteria from the peg surfaces. Pegs were sonicated for 30 min in an Aquasonic model 250HT ultrasonic cleaner (VWR International, Mississauga, Canada). Samples of broth culture were collected at the same time points and viable cell counts were determined in a similar manner.
as §1, §2

[3] = test system: Pseudomonas aeruginosa PA14 gacS^− biofilms; assay: Biofilm susceptibility testing (viable cell counts, log-killing, MBEC99.9); format: cell-based; conditions: for Log-survival / No. of survivors / SCV frequency: LB broth; for Log-survival / No. of survivors / SCV frequency / MBEC99.9: 2 h exposure; for MBEC99.9: gacS^− biofilms, 3 log10 reduction in viable cells
Text: as §3, §1, §2

[4] = test system: Pseudomonas aeruginosa PA14 SCV biofilms; assay: as above; format: cell-based; conditions: for MBEC99.9: 2 h exposure, 3 log10 reduction in viable cells; for tolerance of SCV strain biofilms relative to the wild-type strain: ratio of MBEC99.9 values, SCV vs wild type
Text: as §3, §1, §2

[5] = test system: Pseudomonas aeruginosa PA14 gacS^−; assay: MIC determination, planktonic cells shed from biofilms (MBEC P&G device); format: cell-based; conditions: gacS^−; planktonic cells; OD650 after 72 h at 35° C.; mean ± SD of four trials
Method: as §1, §2

[6] = test system: Pseudomonas aeruginosa PA14 SCV; assay: as above; format: cell-based; conditions: SCV; planktonic cells; OD650 after 72 h at 35° C.; mean ± SD of four trials
Method: as §1, §2

[7] = test system: Pseudomonas aeruginosa PA14 gacS^− biofilms; assay: Frequency of SCV cells arising from 24-h biofilms exposed for 18 h; format: cell-based; conditions: for Log-survival / No. of survivors / SCV frequency: LB broth, overnight (18 h)
[8] = test system: Pseudomonas aeruginosa PA14 gacS^− biofilms; assay: as above; format: cell-based; conditions: for frequency of SCVs (phenotypic variants) among surviving cells, in words: 18 h exposure of 24-h biofilms; for Log-survival / SCV frequency: LB broth, antibiotic 1.25 μg mL^−1, overnight (18 h)
Method: In an alternative set of experiments, the frequency of SCV cells arising from 24-h biofilms of P. aeruginosa PA14 gacS was evaluated. Antibiotics were diluted from stock solutions into LB broth to obtain final concentrations of […]. These were arranged in triplicate in a micro-titre plate. Biofilms were incubated in these low concentrations of antibacterials for 18 h at 35° C. and 95% relative humidity. Goat and human serum were also assayed in this array, and were kind gifts from The Life and Environmental Sciences Animal Care Facility at the University of Calgary, Department of Biological Sciences. After exposure, biofilms were treated in a manner identical to that described above.
Frequency of phenotypic variation. During the course of susceptibility assays, the proportion of SCV cells recovered from biofilms after exposure to Ag^+ or H2O2 was increased relative to the corresponding growth controls. It was queried whether this may be true for other antimicrobial agents or growth conditions. An array of clinically used antibiotics, saline, and goat and human sera were examined for an ability to select for these SCVs from 24-h biofilms of P. aeruginosa PA14 gacS. Biofilms were exposed to these agents for 18 h and each assay was performed in triplicate. Viable cell counts were determined for each exposure condition, and log-survival was determined. The proportion of SCV cells in bacterial populations recovered from these exposure conditions was calculated as the mean of the proportions from each individual trial.

[9] = test system: P. aeruginosa PA14 gacA biofilms; assay: Antibiotic susceptibility profiling of biofilms with the MBEC device; format: cell-based, Pseudomonas aeruginosa; conditions: in words
Method: Growth Conditions, Sample Analysis and Bio-Assays of Pseudomonas aeruginosa. Biofilm and planktonic growth studies were performed using the Calgary Biofilm Device (CBD) (MBEC™ Biofilm Technologies Limited). Pseudomonas aeruginosa PA14 wild type, gacA and toxA strains were grown for 24 hours in Tryptic Soy Broth (BDH). Biofilm and planktonic populations were sampled at points.
Sampling of biofilm populations was achieved by dislodging a peg from the 96 peg lid, whereas planktonic populations were sampled by removing an aliquot from the growth vessel. Biofilms were disrupted to release individual component cells by sonication. Cell counts of both populations were determined by serial dilution in 0.9% saline and spot plating on Tryptic Soy Agar plates (BDH). Antibiotic susceptibility profiling of P. aeruginosa PA14 wild type, toxA and gacA strains was performed using the MBEC™ device as per manufacturer's instructions (MBEC™ Biofilm Technologies Limited).

## [Ag+] [Ag^+]
[1]
  differences in planktonic cell susceptibility between the different strains: no significant differences
  MIC72 h: 40 ± 20 µM
[2]; PA14 wt biofilms, 2 h exposure (FIG. 15)
  concentration at which the vast majority of cell viability was lost: 0.04 mM
[2]
  MBEC99.9: 0.08 ± 0.05 mM
[3]; 4 μg mL^−1
  Log-survival: −2.6 ± 0.1 log10 CFU peg^−1
  No. of survivors: 2.4 ± 0.1 log10 CFU peg^−1
  SCV frequency: 7%
[3]; PA14 gacS biofilms, 2 h exposure (FIG. 15)
  concentration at which the vast majority of cell viability was lost: 0.02 mM
[3]
  MBEC99.9: 0.06 ± 0.02 mM
[3]; susceptibility assays, in words
  proportion of SCV cells recovered from biofilms after exposure, relative to growth controls: increased
[4]; SCV biofilms, 2 h exposure (FIG. 15)
  concentration to which biofilms were resistant: 2.4 mM
[4]; SCV biofilms
  MBEC99.9: 4.8 ± 0 mM
[4]
  tolerance of SCV strain biofilms relative to the wild-type strain: ~60 times
[5]
  MIC72 h: 40 ± 10 µM
[6]
  MIC72 h: 40 ± 0 µM

## NCC[C@H](O)C(=O)N[C@@H]1C[C@H](N)[C@@H](O[C@H]2O[C@H](CN)[C@@H](O)[C@H](O)[C@H]2O)[C@H](O)[C@H]1O[C@H]1O[C@H](CO)[C@@H](O)[C@H](N)[C@H]1O [Amikacin]
[7]; antibiotic 5 μg mL^−1
  Log-survival: −2.8 ± 0.6 log10 CFU peg^−1
  No. of survivors: 3.6 ± 0.6 log10 CFU peg^−1
  SCV frequency: 23%
[8]
  frequency of SCVs (phenotypic variants) among surviving cells, in words: approximately one in five

## C[C@H]1[C@H](NC(=O)/C(=N\OC(C)(C)C(=O)O)c2csc(N)n2)C(=O)N1S(=O)(=O)O [Azetronam]
[7]; antibiotic 1.25 μg mL^−1
  No. of survivors: 4.5 ± 0.5 log10 CFU peg^−1
[8]
  Log-survival: −2.6 ± 0.5 log10 CFU peg^−1
  SCV frequency: 24%

## CO/N=C(\C(=O)N[C@@H]1C(=O)N2C(C(=O)O)=C(CSc3nc(=O)c(O)nn3C)CS[C@H]12)c1csc(N)n1 [Ceftrioxone]
[7]; antibiotic 1.25 μg mL^−1
  No. of survivors: 6.8 ± 0.5 log10 CFU peg^−1
[8]
  frequency of SCVs (phenotypic variants) among surviving cells, in words: approximately one in three
  Log-survival: +0.4 ± 0.5 log10 CFU peg^−1
  SCV frequency: 29%

## [Cu+2] [Cu^2+]
[1]
  differences in planktonic cell susceptibility between the different strains: no significant differences
  MIC72 h: 8000 ± 0 µM
[2]
  MBEC99.9: 8 ± 0 mM
[3]; 16 μg mL^−1
  Log-survival: −0.9 ± 0.1 log10 CFU peg^−1
  No. of survivors: 4.2 ± 0.1 log10 CFU peg^−1
  SCV frequency: 0%
[3]
  MBEC99.9: 7 ± 2 mM
[4]; SCV biofilms
  MBEC99.9: 64 ± 0 mM
[4]
  tolerance of SCV strain biofilms relative to the wild-type strain: eight
[5]
  MIC72 h: 8000 ± 0 µM
[6]
  MIC72 h: 4000 ± 0 µM

## CC[C@H]1OC(=O)[C@H](C)[C@@H](O[C@H]2C[C@@](C)(OC)[C@@H](O)[C@H](C)O2)[C@H](C)[C@@H](O[C@@H]2O[C@H](C)C[C@H](N(C)C)[C@H]2O)[C@](C)(O)C[C@@H](C)C(=O)[C@H](C)[C@@H](O)[C@]1(C)O [Erythromicin]
[7]; antibiotic 5 μg mL^−1
  Log-survival: −0.1 ± 0.3 log10 CFU peg^−1
  No. of survivors: 6.4 ± 0.3 log10 CFU peg^−1
  SCV frequency: 0%
[9]
  biofilm resistance relative to PA14 wild type or toxA control strain: moderately decreased resistance
[8]; in words
  selection for SCVs / increase of the frequency of SCV cells compared with growth controls: in no instances

## C[C@@H](O)[C@H]1C(=O)N2C(C(=O)O)=C(SCCN=CN)C[C@H]12 [Imipenem]
[7]; antibiotic 1.25 μg mL^−1
  No. of survivors: 2.7 ± 1.0 log10 CFU peg^−1
[8]
  Log-survival: −3.8 ± 1.0 log10 CFU peg^−1
  SCV frequency: 0%

## Cc1onc(-c2ccccc2)c1C(=O)N[C@@H]1C(=O)N2[C@@H]1SC(C)(C)[C@@H]2C(=O)O [Oxacilin]
[7]; antibiotic 1.25 μg mL^−1
  No. of survivors: 5.6 ± 0.6 log10 CFU peg^−1
[8]
  frequency of SCVs (phenotypic variants) among surviving cells, in words: approximately one in three
  Log-survival: −0.9 ± 0.6 log10 CFU peg^−1
  SCV frequency: 32%

## CO[C@H]1/C=C/O[C@@]2(C)Oc3c(C)c(O)c4c(O)c(c(/C=N/N5CCN(C)CC5)c(O)c4c3C2=O)NC(=O)/C(C)=C\C=C\[C@H](C)[C@H](O)[C@@H](C)[C@@H](O)[C@@H](C)[C@H](OC(C)=O)[C@@H]1C [Rifampicin]
[7]; 5 μg/mL
  cells killed from the biofilm population: 0.7 log10 cells
[7]; antibiotic 5 μg mL^−1
  Log-survival: −0.7 ± 0.3 log10 CFU peg^−1
  No. of survivors: 5.7 ± 0.3 log10 CFU peg^−1
  SCV frequency: 58%

## NC[C@H]1O[C@H](O[C@H]2[C@H](O)[C@@H](O[C@H]3O[C@H](CO)[C@@H](O)[C@H](N)[C@H]3O)[C@H](N)C[C@@H]2N)[C@H](N)C[C@@H]1O [Tobramicin]
[7]; antibiotic 1.25 μg mL^−1
  No. of survivors: 5.4 ± 0.5 log10 CFU peg^−1
[8]
  frequency of SCVs (phenotypic variants) among surviving cells, in words: approximately one in five
  Log-survival: −1.0 ± 0.5 log10 CFU peg^−1
  SCV frequency: 14%

## CC[C@H]1OC(=O)[C@H](C)[C@@H](O[C@H]2C[C@@](C)(OC)[C@@H](O)[C@H](C)O2)[C@H](C)[C@@H](O[C@@H]2O[C@H](C)C[C@H](N(C)C)[C@H]2O)[C@](C)(O)C[C@@H](C)CN(C)[C@H](C)[C@@H](O)[C@]1(C)O [azythromycin]
[9]
  biofilm resistance relative to PA14 wild type or toxA control strain: moderately decreased resistance

## O=C(N[C@H](CO)[C@H](O)c1ccc([N+](=O)[O-])cc1)C(Cl)Cl [chloramphenicol]
[9]
  biofilm resistance relative to PA14 wild type or toxA control strain: moderately decreased resistance

## CCN1CCN(C(=O)N[C@@H](C(=O)N[C@@H]2C(=O)N3[C@@H]2SC(C)(C)[C@@H]3C(=O)O)c2ccccc2)C(=O)C1=O [piperacillin]
[9]
  biofilm resistance relative to PA14 wild type or toxA control strain: moderately decreased resistance
[8]
  frequency of SCVs (phenotypic variants) among surviving cells, in words: approximately one in three

## polymixin B
[9]
  biofilm resistance relative to PA14 wild type or toxA control strain: moderately decreased resistance

Source: US20080075730A1, “Methods and compositions for treating biofilms” (priority 2003, published 2008)
